Experimental data from patent US20160166572A1, “BENEFICIAL EFFECTS OF Lp-PLA2 INHIBITORS IN TREATMENT OF DIABETIC RETINOPATHY AND AGE-RELATED MACULAR DEGENERATION” (Rowan University, priority 2014, published 2016).

Experiments:
Assay type in all cases: in vivo, pig
porcine retina = test: Determination of retinal layer thickness (H&E, ImagePro) in DMHC porcine model; conditions: DMHC pigs, Darapladib 10 mg/kg/d orally, 24 weeks
Description: Briefly, after induction of diabetes by a single injection of Streptozotocin, animals were fed a high cholesterol diet. After a month of DMHC induction and acclimation, animals were randomly segregated to untreated DMHC and Darapladib-treated DMHC groups. Darapladib-treated pigs received 10 mg/kg/d of Darapladib orally. Three of the pigs were spared from DMHC induction and served as age-matched, non-DMHC normal controls. Twenty four weeks after acclimation, animals were euthanized and their brains and eyes were immediately removed. Brains were divided anteroposteriorly into anterior, middle and posterior regions. For each of these brain regions, 2-3 tissue blocks were generated for routine tissue fixation (10% formalin) or freezing and histological processing. The anterior cortical region comprised of anterior ⅔ of frontal lobe and anterior ⅓ of temporal lobe. The middle cortical region contained mid ⅓ of temporal lobe and anterior ½ of the parietal lobe. The posterior cortex included the posterior ½ of the parietal lobe, posterior ⅓ of the temporal lobe and the occipital lobe. Eyes were dissected longitudinally to sever the retina at the optic nerve. The sections were fixed in 10% formalin and embedded as flattened disc in paraffin. The tissue samples were processed using routine histology techniques. Standard Hematoxylin & Eosin (H&E) staining (FIG. 1) was carried out in retinal sections. The remarkably uniform and laminated histological architecture of the retina lends itself well to direct measurements of the thickness of the various layers as shown in FIG. 1. Using the image analysis software, ImagePro 7.0 (Media Cybernetics, Silver Spring, Md.), the thickness of all retinal layers were measured. The thickness of each retinal layer was measured in three separate retinal sections obtained from each animal. In each section, measurements were made at two randomly selected locations in the middle part of retina. Results were averaged for each pig. The identity of specimens was blinded and two independent investigators carried out this analysis. In addition, the percentage contribution of each retinal layer to the total thickness of the retina was calculated and compared among the different treatment groups (FIG. 2). The thickness of the individual layers of the retina was measured in transverse sections stained with Hematoxylin and Eosin using the image analysis software, ImagePro 7.0.

claudin5 = test: Claudin5 gene expression in cerebral cortex (RT-PCR, beta-actin reference), DMHC pigs; conditions: Darapladib 10 mg/kg/d orally, 24 weeks, rank among treatment groups, FIG. 8A
Description: (§1) Briefly, after induction of diabetes by a single injection of Streptozotocin, animals were fed a high cholesterol diet. After a month of DMHC induction and acclimation, animals were randomly segregated to untreated DMHC and Darapladib-treated DMHC groups. Darapladib-treated pigs received 10 mg/kg/d of Darapladib orally. Three of the pigs were spared from DMHC induction and served as age-matched, non-DMHC normal controls. Twenty four weeks after acclimation, animals were euthanized and their brains and eyes were immediately removed. Brains were divided anteroposteriorly into anterior, middle and posterior regions. […]
(§2) Relative quantification of claudin5 and occludin gene expression was carried out using the reporter dye SYBR green and Applied Biosystems 7500 real time polymerase chain reaction (RT-PCR) system. […] Relative quantification of the claudin5 and occludin gene expression was conducted using beta actin (β-actin), a house keeping gene, as a standard. The amplification profiles of all samples were analyzed using Applied Biosystems software. […]
(§3) Changes in claudin 5 and occludin gene expression in response to DMHC and Darapladib treatment were assessed in the middle brain region only of the pig cerebral cortex by real-time polymerase chain reaction (RT-PCR) using beta-actin as a reference (FIG. 8).

occludin = test: Occludin gene expression in cerebral cortex (RT-PCR, beta-actin reference), DMHC pigs; conditions: Darapladib 10 mg/kg/d orally, 24 weeks, rank among treatment groups, FIG. 8B
Description: as §1, §2, §3

Question: Which “thickness of ganglion cell layer (GCL)” value (porcine retina; FIG. 2B) does the source give for `CCN(CC)CCN(Cc1ccc(-c2ccc(C(F)(F)F)cc2)cc1)C(=O)Cn1c(SCc2ccc(F)cc2)nc(=O)c2c1CCC2` [Darapladib] here?
Answer: The value was “comparable to controls”.

Question: What about the “thickness of outer nuclear layer (ONL)” value (porcine retina; FIG. 2C) of the same molecule?
Answer: The value was “comparable to controls”.

Question: And the “thickness of inner-segment (IS)/outer-segment (OS) layer” value (porcine retina; FIG. 2D)?
Answer: Its value is “comparable to controls”.

Question: And the “thickness of inner plexiform layer (IPL)” value (porcine retina; FIG. 2E)?
Answer: Its value is “lowered IPL thickness in DMHC animals to near control levels”.

Question: What about the “thickness of inner nuclear layer (INL)” value (porcine retina; FIG. 2F) of the same molecule?
Answer: The value was “comparable thickness across all treatment groups”.

Question: And the “claudin5 gene expression, middle brain region of cerebral cortex” value (claudin5)?
Answer: Its value is “highest claudin5 and occludin levels”.

Question: And the “occludin gene expression, middle brain region of cerebral cortex” value (occludin)?
Answer: Its value is “highest claudin5 and occludin levels”.
